In the NIST ThermoML archive (doi:10.1016/j.jct.2018.04.019):

Conditions: Liquid; for speed of sound: Frequency=5 MHz, Pulse-echo method; for mass density: Vibrating tube method

CCCCCCCCC [nonane]
Conditions | mass density [kg/m3] | speed of sound [m/s]
283.13 K, 1090 kPa | – | 1273.9
283.13 K, 30100 kPa | – | 1432.4
283.13 K, 59970 kPa | – | 1563.7
283.13 K, 90370 kPa | – | 1676.8
283.13 K, 120250 kPa | – | 1774.7
283.13 K, 149990 kPa | – | 1862.2
283.13 K, 180130 kPa | – | 1943.2
283.13 K, 210070 kPa | – | 2017.3
283.13 K, 240000 kPa | – | 2086.3
283.13 K, 270320 kPa | – | 2151.8
283.13 K, 300010 kPa | – | 2212.5
283.13 K, 330300 kPa | – | 2271
283.13 K, 360220 kPa | – | 2326
283.13 K, 389880 kPa | – | 2378.1
283.15 K, 1010 kPa | 726.22 | –
283.15 K, 5020 kPa | 729.22 | –
283.15 K, 5040 kPa | 729.17 | –
283.15 K, 10020 kPa | 732.75 | –
283.15 K, 15020 kPa | 736.14 | –
283.15 K, 20040 kPa | 739.41 | –
283.15 K, 25020 kPa | 742.54 | –
283.15 K, 30040 kPa | 745.52 | –
283.15 K, 35050 kPa | 748.45 | –
283.15 K, 40010 kPa | 751.23 | –
283.15 K, 45050 kPa | 753.99 | –
283.15 K, 50010 kPa | 756.62 | –
283.15 K, 55020 kPa | 759.19 | –
283.15 K, 60030 kPa | 761.66 | –
283.15 K, 65010 kPa | 764.08 | –
298.15 K, 1020 kPa | 714.83 | –
298.15 K, 1040 kPa | – | 1212.6
298.15 K, 5010 kPa | 718.08 | –
298.15 K, 5040 kPa | 718.12 | –
298.15 K, 10030 kPa | 721.94 | –
298.15 K, 15060 kPa | 725.7 | –
298.15 K, 20040 kPa | 729.17 | –
298.15 K, 25040 kPa | 732.54 | –
298.15 K, 30010 kPa | 735.76 | –
298.15 K, 30040 kPa | – | 1380.2
298.15 K, 35050 kPa | 738.87 | –
298.15 K, 40010 kPa | 741.88 | –
298.15 K, 45060 kPa | 744.79 | –
298.15 K, 50010 kPa | 747.56 | –
298.15 K, 55040 kPa | 750.31 | –
298.15 K, 60020 kPa | 752.92 | –
298.15 K, 60130 kPa | – | 1518
298.15 K, 65010 kPa | 755.48 | –
298.15 K, 90110 kPa | – | 1633.4
298.15 K, 120200 kPa | – | 1734.7
298.15 K, 150120 kPa | – | 1824.9
298.15 K, 180370 kPa | – | 1907.9
298.15 K, 210410 kPa | – | 1983.7
298.15 K, 240020 kPa | – | 2053.1
298.15 K, 270230 kPa | – | 2119.6
298.15 K, 300100 kPa | – | 2181.4
298.15 K, 330260 kPa | – | 2240.5
298.15 K, 360030 kPa | – | 2296
298.15 K, 390030 kPa | – | 2349.2
323.14 K, 1020 kPa | – | 1112.3
323.14 K, 30050 kPa | – | 1297.8
323.14 K, 60210 kPa | – | 1445.2
323.14 K, 90150 kPa | – | 1566.7
323.14 K, 120240 kPa | – | 1672.3
323.14 K, 150130 kPa | – | 1765.5
323.14 K, 179980 kPa | – | 1850.1
323.14 K, 210410 kPa | – | 1929.2
323.14 K, 239980 kPa | – | 2000.4
323.14 K, 270330 kPa | – | 2068.7
323.14 K, 300070 kPa | – | 2131.6
323.14 K, 330050 kPa | – | 2191.3
323.14 K, 360040 kPa | – | 2247.9
323.14 K, 390060 kPa | – | 2301.7
323.15 K, 1030 kPa | 695.27 | –
323.15 K, 5030 kPa | 699.04 | –
323.15 K, 5060 kPa | 699.09 | –
323.15 K, 10050 kPa | 703.57 | –
323.15 K, 15020 kPa | 707.81 | –
323.15 K, 20050 kPa | 711.84 | –
323.15 K, 25020 kPa | 715.63 | –
323.15 K, 30020 kPa | 719.22 | –
323.15 K, 35080 kPa | 722.75 | –
323.15 K, 40050 kPa | 726.09 | –
323.15 K, 45060 kPa | 729.27 | –
323.15 K, 50030 kPa | 732.36 | –
323.15 K, 55050 kPa | 735.35 | –
323.15 K, 60010 kPa | 738.19 | –
323.15 K, 65010 kPa | 741.02 | –
348.14 K, 1040 kPa | – | 1017.2
348.14 K, 1060 kPa | – | 1018.1
348.14 K, 30150 kPa | – | 1220.8
348.14 K, 59870 kPa | – | 1375.2
348.14 K, 90060 kPa | – | 1503.8
348.14 K, 120210 kPa | – | 1613.8
348.14 K, 150180 kPa | – | 1710.4
348.14 K, 180310 kPa | – | 1798.1
348.14 K, 210230 kPa | – | 1877.8
348.14 K, 240360 kPa | – | 1951.8
348.14 K, 269990 kPa | – | 2019.2
348.14 K, 300420 kPa | – | 2084.3
348.14 K, 330170 kPa | – | 2144.5
348.14 K, 360170 kPa | – | 2202.2
348.14 K, 390070 kPa | – | 2256.5
348.15 K, 1010 kPa | 675.18 | –
348.15 K, 5030 kPa | 679.76 | –
348.15 K, 5040 kPa | 679.76 | –
348.15 K, 10030 kPa | 685 | –
348.15 K, 15020 kPa | 689.84 | –
348.15 K, 20040 kPa | 694.44 | –
348.15 K, 25050 kPa | 698.79 | –
348.15 K, 30030 kPa | 702.84 | –
348.15 K, 35050 kPa | 706.74 | –
348.15 K, 40020 kPa | 710.4 | –
348.15 K, 45070 kPa | 714.01 | –
348.15 K, 50040 kPa | 717.37 | –
348.15 K, 55050 kPa | 720.67 | –
348.15 K, 60000 kPa | 723.79 | –
348.15 K, 65040 kPa | 726.84 | –
373.14 K, 1020 kPa | – | 924.94
373.14 K, 30120 kPa | – | 1147.9
373.14 K, 60040 kPa | – | 1312.4
373.14 K, 90420 kPa | – | 1447
373.14 K, 120190 kPa | – | 1559.5
373.14 K, 150200 kPa | – | 1659
373.14 K, 180540 kPa | – | 1749
373.14 K, 210010 kPa | – | 1829.3
373.14 K, 240370 kPa | – | 1905.5
373.14 K, 270130 kPa | – | 1974.7
373.14 K, 300130 kPa | – | 2040.3
373.14 K, 330240 kPa | – | 2102.3
